Data as given in the supplement of paper PMC10307832.

Experiments:
Experiment in all cases: relative viability (nuclei count vs DMSO), 5 days (fraction); higher = more cells survive
[1] = compound: COc1cc2ncn(-c3cc(OCc4ccccc4C(F)(F)F)c(C(N)=O)s3)c2cc1OC + Nc1nc2[nH]cc(CCc3ccc(C(=O)N[C@@H](CCC(=O)O)C(=O)O)cc3)c2c(=O)[nH]1 [Pemetrexed] (partner 0.2 µM)
Summary of the method: (§1)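 Values are medians from duplicate plates. Each reflects relative viability, defined as the nuclei count of treated wells over that of vehicle wells. Lung cancer cell lines in 1536-well plates were pin-tool dosed one day after seeding with one drug alone or with a fixed anchor-drug dose plus five library-drug doses (not always all listed) in √10 steps, then fixed, stained and imaged at 4× after 5 days.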

[2] = compound: COc1cc2ncn(-c3cc(OCc4ccccc4C(F)(F)F)c(C(N)=O)s3)c2cc1OC + C[C@]1(O)C[C@@H](c2nc(-c3ccc4ccc(-c5ccccc5)nc4c3)c3c(N)nccn32)C1 [Linsitinib] (partner 1 µM)
Summary of the method: as §1

[3] = compound: COc1cc2ncn(-c3cc(OCc4ccccc4C(F)(F)F)c(C(N)=O)s3)c2cc1OC + CC1(C)CCC(c2ccc(Cl)cc2)=C(CN2CCN(c3ccc(C(=O)NS(=O)(=O)c4ccc(N[C@H](CCN5CCOCC5)CSc5ccccc5)c(S(=O)(=O)C(F)(F)F)c4)cc3)CC2)C1 [Navitoclax] (partner 0.5 µM)
Summary of the method: as §1

[4] = compound: COc1cc2ncn(-c3cc(OCc4ccccc4C(F)(F)F)c(C(N)=O)s3)c2cc1OC + O=C(CCCCCCC(=O)Nc1ccccc1)NO [Vorinostat] (partner 1 µM)
Summary of the method: as §1

Cell Line | relative viability ([1]; first compound 0.05 µM) | relative viability ([1]; first compound 0.1581 µM) | relative viability ([1]; first compound 0.5 µM) | relative viability ([1]; first compound 1.581 µM) | relative viability ([1]; first compound 5 µM) | relative viability ([2]; first compound 0.05 µM) | relative viability ([2]; first compound 0.1581 µM) | relative viability ([2]; first compound 0.5 µM) | relative viability ([2]; first compound 1.581 µM) | relative viability ([2]; first compound 5 µM) | relative viability ([3]; first compound 0.05 µM) | relative viability ([3]; first compound 0.1581 µM) | relative viability ([3]; first compound 0.5 µM) | relative viability ([3]; first compound 1.581 µM) | relative viability ([3]; first compound 5 µM) | relative viability ([4]; first compound 0.05 µM) | relative viability ([4]; first compound 0.1581 µM) | relative viability ([4]; first compound 0.5 µM) | relative viability ([4]; first compound 1.581 µM) | relative viability ([4]; first compound 5 µM)
NCI-H1651 | 0.636 | 0.578 | 0.468 | 0.402 | 0.326 | 1 | 1.14 | 0.528 | 0.117 | 0.0945 | 1.12 | 1.24 | 0.835 | 0.0858 | 0.0692 | 0.504 | 0.51 | 0.309 | 0.164 | 0.324
NCI-H1666 | 0.827 | 0.83 | 0.651 | 0.52 | 0.447 | 0.821 | 0.953 | 0.37 | 0.219 | 0.248 | 0.814 | 1.05 | 0.308 | 0.225 | 0.205 | 0.954 | 0.998 | 0.584 | 0.561 | 0.527
NCI-H1734 | 0.401 | 0.386 | 0.41 | 0.25 | 0.164 | 0.946 | 0.956 | 0.644 | 0.309 | 0.215 | 0.824 | 0.806 | 0.35 | 0.133 | 0.0981 | 0.776 | 0.902 | 0.365 | 0.202 | 0.137
NCI-H1755 | 0.43 | 0.434 | 0.426 | 0.299 | 0.286 | 0.995 | 1.02 | 0.799 | 0.416 | 0.349 | 1.04 | 0.957 | 0.653 | 0.222 | 0.183 | 0.781 | 0.738 | 0.631 | 0.447 | 0.354
NCI-H1793 | 0.788 | 1.01 | 0.276 | 0.164 | 0.107 | 0.928 | 0.847 | 0.763 | 0.248 | 0.145 | 0.928 | 0.544 | 0.187 | 0.221 | 0.139 | 0.553 | 0.42 | 0.328 | 0.17 | 0.113
NCI-H1915 | 0.478 | 0.489 | 0.37 | 0.137 | 0.0826 | 1.09 | 1.05 | 0.795 | 0.169 | 0.106 | 0.758 | 0.739 | 0.539 | 0.0643 | 0.0409 | 0.497 | 0.582 | 0.352 | 0.0829 | 0.0666
NCI-H1944 | 0.666 | 0.635 | 0.536 | 0.178 | 0.0832 | 1.2 | 1.15 | 0.923 | 0.257 | 0.171 | 1.04 | 1.06 | 0.785 | 0.189 | 0.123 | 0.609 | 0.602 | 0.456 | 0.166 | 0.127
NCI-H1975 | 0.3 | 0.274 | 0.232 | 0.188 | 0.159 | 1.01 | 0.877 | 0.531 | 0.207 | 0.196 | 0.88 | 1.01 | 0.529 | 0.168 | 0.174 | 0.501 | 0.631 | 0.272 | 0.166 | 0.134
NCI-H1993 | 0.513 | 0.616 | 0.41 | 0.421 | 0.448 | 0.835 | 0.782 | 0.572 | 0.56 | 0.528 | 1.22 | 0.912 | 0.602 | 0.507 | 0.503 | 0.725 | 0.736 | 0.384 | 0.389 | 0.348
NCI-H2009 | 0.983 | 0.884 | 0.43 | 0.218 | 0.26 | 1.19 | 1.11 | 0.918 | 0.208 | 0.22 | 1.14 | 1.07 | 0.666 | 0.0806 | 0.0608 | 0.667 | 0.607 | 0.302 | 0.0531 | 0.0578
NCI-H2023 | 0.202 | 0.2 | 0.177 | 0.107 | 0.114 | 0.593 | 0.769 | 0.49 | 0.123 | 0.0804 | 0.977 | 1.1 | 0.867 | 0.0884 | 0.0956 | 0.544 | 0.711 | 0.168 | 0.107 | 0.0613
NCI-H2085 | 0.85 | 0.831 | 0.719 | 0.33 | 0.292 | 0.885 | 0.731 | 0.601 | 0.168 | 0.416 | 1.2 | 1.09 | 0.593 | 0.367 | 0.365 | 0.722 | 0.796 | 0.541 | 0.386 | 0.302
NCI-H2087 | 0.617 | 0.684 | 0.414 | 0.11 | 0.106 | 0.995 | 0.981 | 0.307 | 0.168 | 0.195 | 1.04 | 0.974 | 0.194 | 0.136 | 0.134 | 0.639 | 0.573 | 0.163 | 0.0594 | 0.121
NCI-H2126 | 0.75 | 0.655 | 0.498 | 0.288 | 0.251 | 0.721 | 0.772 | 0.587 | 0.292 | 0.264 | 0.856 | 0.834 | 0.662 | 0.284 | 0.225 | 0.847 | 0.759 | 0.401 | 0.236 | 0.216
NCI-H2228 | 0.329 | 0.352 | 0.265 | 0.153 | 0.238 | 0.525 | 0.52 | 0.253 | 0.176 | 0.231 | 1.05 | 1.3 | 0.167 | 0.0999 | 0.105 | 0.283 | 0.575 | 0.196 | 0.111 | 0.104
NCI-H2347 | 0.455 | 0.434 | 0.403 | 0.364 | 0.33 | 0.99 | 0.915 | 0.84 | 0.572 | 0.759 | 0.78 | 1.01 | 0.566 | 0.38 | 0.579 | 0.551 | 0.658 | 0.407 | 0.445 | 0.302
NCI-H2405 | 1.12 | 1.01 | 0.399 | 0.377 | 0.367 | 0.99 | 0.757 | 0.372 | 0.424 | 0.386 | 0.931 | 0.69 | 0.16 | 0.0992 | 0.0957 | 1.21 | 0.676 | 0.38 | 0.386 | 0.254
NCI-H3122 | 0.21 | 0.196 | 0.16 | 0.124 | 0.11 | 0.943 | 1.07 | 0.256 | 0.184 | 0.221 | 1.05 | 1.01 | 0.212 | 0.189 | 0.202 | 1 | 0.596 | 0.357 | 0.13 | 0.13
PC-3 [JPC-3] | 1.31 | 1.1 | 0.611 | 0.28 | 0.254 | 0.91 | 0.945 | 0.744 | 0.309 | 0.286 | 0.757 | 0.715 | 0.471 | 0.27 | 0.238 | 0.907 | 0.82 | 0.515 | 0.464 | 0.31
PC-14 | 0.132 | 0.148 | 0.126 | 0.048 | 0.0388 | 1.05 | 0.906 | 0.463 |  | 0.106 | 1.03 | 0.97 | 0.407 | 0.151 | 0.273 | 0.662 | 0.655 | 0.141 | 0.0309 | 0.0197
RERF-LC-KJ | 0.472 | 0.487 | 0.439 | 0.299 | 0.346 | 0.806 | 0.901 | 0.559 |  | 0.357 | 0.993 | 0.874 | 0.416 | 0.23 | 0.414 | 0.696 | 0.626 | 0.33 | 0.287 | 0.345
SK-LU-1 | 0.7 | 0.886 | 0.351 | 0.298 | 0.272 | 1.28 | 1.01 | 0.395 | 0.399 | 0.295 | 0.641 | 0.56 | 0.794 | 0.123 | 0.113 | 0.615 | 0.529 | 0.301 | 0.304 | 0.257
SK-MES-1 | 0.903 | 0.829 | 0.419 | 0.195 | 0.167 | 1.03 | 1.01 | 0.745 |  | 0.362 | 1.14 | 1.25 | 0.519 | 0.119 | 0.127 | 1.06 | 1.01 | 0.212 | 0.174 | 0.147
SW 1573 | 0.839 | 0.742 | 0.594 | 0.149 | 0.136 | 0.733 | 0.869 | 0.514 | 0.173 | 0.275 | 1.06 | 1.09 | 0.466 | 0.115 | 0.0609 | 0.834 | 0.691 | 0.219 | 0.142 | 0.0957
UMC-11 | 0.619 | 0.599 | 0.201 | 0.191 | 0.201 | 0.962 | 0.912 | 0.274 | 0.152 | 0.136 | 0.312 | 0.269 | 0.113 | 0.0962 | 0.094 | 0.283 | 0.22 | 0.136 | 0.131 | 0.104
